Here are results for 13 molecules from PMC10765869, “Synthesis, design, biological evaluation, and computational analysis of some novel uracil-azole derivatives as cytotoxic agents” (BMC Chemistry, 2024).

Data set [1] has as its system a studied cancer cell line. Also noted: method as in PMID 32736079. The note with it: cited from earlier work.
Data set [2] relates to Hela cell line. Also noted: method as in PMID 33808444. The note with it: cited from earlier work.
The test system of data set [3] is Huha cell line. Also noted: method as in PMID 33808444. The note with it: cited from earlier work.
The subject of data set [4] is MCF-7 (breast carcinoma) cell line. The experiment in a line: MTT assay, MCF-7. Format: cell-based, human. Conditions: mean ± SD, triplicate. The text has this: (§1) The cytotoxic activity of the designed compounds (4a-4l) was obtained by MTT assay (standard 3-(4,5-dimethylthiazol-yl)-2,5-diphenyl-tetrazolium bromide) according to our previous protocols. Two human cancer cell lines including MCF-7 (breast carcinoma) and HEPG-2 (Hepatocellular carcinoma) were purchased from the National Cell Bank of Iran (NCBI, Pasteur Institute, Tehran, Iran). RPMI 1640 culture media was used to culture cancer cell lines. The media was supplemented with 10% fetal bovine serum (FBS) and 1% penicillin–streptomycin (Gibco, USA), and the cells were kept at 37 °C in a humidified CO2 incubator. For the MTT assay, trypsin/EDTA 0.5% solution (Gibco/USA) was applied to harvest cells and seeded in 96-well microplates at a density of 1 × 10^4 cells per well [26]. Five different concentrations of the designed compounds and Cisplatin as the positive control (1–200 μM) were used for treatment in triplicate times. Three untreated wells were used as the negative control. After 72 h, the media was changed by 100 μL fresh MTT solution and incubated for 4 h at 37 °C in the incubator to obtain formazan purple crystals. Finally, the media was removed and 150 μL of DMSO was added and incubated at 37 °C in dark for 10 min to dissolve the crystals. The absorbance of individual wells was read at 490 nm using a microplate ELISA reader. Excel 2016 and Curve Expert 1.4 were used to analyze the data. The data were presented as mean ± SD for each analysis.
For orientation: Tetrazolium assays rely on reduction of a dye to a coloured formazan, in cell work by metabolically active cells.

In data set [5] the test system is HEPG-2 (Hepatocellular carcinoma) cell line. The experiment in a line: MTT assay, HEPG-2. Conditions: mean ± SD, triplicate. Format: cell-based, human.
From the text: as §1

Data set [6] concerns normal lung cell line (MRC-5). Kind of data set: MTT assay, MRC-5 normal cells. Format: cell-based.
In data set [7] the test system is MCF-7 and HEPG-2 cell lines. Kind of data set: MTT assay, ranges over both cancer cell lines. The data set is classed as cell-based. The note with it: Homo sapiens; range spans both cell lines.
From the text: as §1, with “Excel 2016 and Curve Expert 1.4 were used to analyze the data. The data were presented as mean ± SD for each analysis.” left out

The mark [8] stands for this setting: Homo sapiens, MRC5, read-out: IC50 ± SD, MRC-5.

Where two headings read alike, the source gives them in different places.

As usually defined, the IC50 is the midpoint of a concentration-inhibition curve. For `O=c1[nH]c(=O)n(Cc2ccc(-c3noc(-c4ccc(-c5ccccc5)cc4)n3)cc2)cc1F` [A], the IC50 in data set [1] was 0.88 µM.

On to `Cc1ccc(Cn2cc(Cn3c(Cl)cc(=O)n(C)c3=O)nn2)cc1` [B], for which the values for the IC50 in data set [2] and in data set [3] were 4.5 µM and 7.7 µM, respectively.

As for `N.N.[Cl][Pt][Cl]` [Cis platin, Cisplatin, reference compound], the 50% inhibitory concentration (IC50) in data set [4] (72 h) was 20.7 ± 0.83 µM; in data set [5] (72 h), 15.9 ± 1.83 µM; in data set [6] (read-out: IC50 ± SD, MRC-5), 45.2 ± 2.5 µM.

What is called melting point is the temperature of the solid-liquid transition. In turn, `Cn1c(=O)cc(-n2ccnc2)n(Cc2ccccc2)c1=O` [Compound 4a, 3-methyl-1-(benzyl)-6-(H1-imidazole-1-yl) pyrimidine-2,4-(H1, H3) dione] gave a melting point of 138 to 142 °C. The same molecule showed an IC50 in data set [4] (Homo sapiens, MCF7, 72 h) of 150.5 ± 0.77 µM. The molecule also returned an IC50 in data set [5] (Homo sapiens, HepG2, 72 h) of 193 ± 7.98 µM. The half-inhibitory concentration (IC50) in data set [6] (setting [8]) is > 200 µM.

For `Cc1cccc(Cn2c(-n3ccnc3)cc(=O)n(C)c2=O)c1` [Compound 4b, 3-methyl-1-(3-methylbenzyl)-6-(H1-imidazole-1-yl) pyrimidine-2,4-(H1, H3) dione], the melting point fell in the range of 123 to 124 °C. This molecule also gave an IC50 in data set [4] (Homo sapiens, MCF7, 72 h) of 17.1 ± 1.3 µM. In data set [5] (Homo sapiens, HepG2, 72 h), this molecule came in with an IC50 of 48.5 ± 1.97 µM. For the same molecule, the IC50 in data set [6] (setting [8]) was determined as 61.8 ± 2.3 µM. In addition, the IC50 in data set [7] is 17.1 to 48.5 µM.

`Cc1ccc(Cn2c(-n3ccnc3)cc(=O)n(C)c2=O)cc1` [Compound 4c, 3-methyl-1-(4-methylbenzyl)-6-(H1-imidazole-1-yl) pyrimidine-2,4-(H1, H3) dione] gave a melting point of 100 to 102 °C. Also, the IC50 in data set [4] (Homo sapiens, MCF7, 72 h) is 26.1 ± 4.41 µM. For the same molecule, the IC50 in data set [5] (Homo sapiens, HepG2, 72 h) worked out at 27.2 ± 1.66 µM. Moreover, the IC50 in data set [6] (setting [8]) is 101 ± 3.02 µM. Besides, in data set [7], the IC50 lay within 17.1 to 48.5 µM.

Molecule `Cn1c(=O)cc(-n2ccnc2)n(Cc2ccc(Br)cc2)c1=O` [Compound 4d, 3-methyl-1-(4-bromobenzyl)-6-(H1-imidazole-1-yl) pyrimidine-2,4-(H1, H3) dione] displayed a melting point of 110 to 113 °C. Moreover, the IC50 in data set [4] (Homo sapiens, MCF7, 72 h) came to 131 ± 3.1 µM. Further, in data set [5] (Homo sapiens, HepG2, 72 h), it took 177 ± 4.06 µM to reach half-maximal inhibition (IC50). In data set [6] (setting [8]), the IC50 is > 200 µM.

`Cc1nccn1-c1cc(=O)n(C)c(=O)n1Cc1ccccc1` [Compound 4e, 3-methyl-1-(benzyl) 6-(2-methyl-H1-imidazol-1-yl) pyrimidine-2,4-(H1, H3) dione]: the melting point is 138 to 140 °C. In data set [4] (Homo sapiens, MCF7, 72 h), this molecule came in with an IC50 of 92 ± 2.19 µM. In addition, in data set [6] (setting [8]), the IC50 was > 200 µM.

With `Cc1ccc(Cn2c(-n3ccnc3C)cc(=O)n(C)c2=O)cc1` [Compound 4f, 3-methyl-1-(4-methylbenzyl)-6-(2-methyl-H1-imidazole-1-yl) pyrimidine-2,4-(H1, H3) dione], the melting point lay in the range of 120 to 122 °C. The IC50 in data set [4] (Homo sapiens, MCF7, 72 h) is 65.5 ± 3.1 µM. Moreover, in data set [5] (Homo sapiens, HepG2, 72 h), it took 55.9 ± 6.58 µM to reach half-maximal inhibition (IC50). Further, the IC50 in data set [6] (setting [8]) is > 200 µM.

As to `Cc1nccn1-c1cc(=O)n(C)c(=O)n1Cc1ccc(Br)cc1` [Compound 4g, 3-methyl-1-(4-bromobenzyl)-6-(2-methyl-H1-imidazole-1-yl) pyrimidine-2,4-(H1, H3) dione], the melting point is 160 to 162 °C. This molecule also showed an IC50 in data set [4] (Homo sapiens, MCF7, 72 h) of 109 ± 3.74 µM. This molecule also returned an IC50 in data set [5] (Homo sapiens, HepG2, 72 h) of 106 ± 3.03 µM. In addition, the IC50 in data set [6] (setting [8]) was > 200 µM.

`Cn1c(=O)cc(-n2cncn2)n(Cc2ccccc2)c1=O` [Compound 4h, 3-methyl-1-(benzyl)-6-(H1-1,2,4-triazole-1-yl) pyrimidine-2,4-(H1, H3) dione] yielded a melting point of 91 to 93 °C.

Turning to `Cc1cccc(Cn2c(-n3cncn3)cc(=O)n(C)c2=O)c1` [Compound 4i, 3-methyl-1-(3-methylbenzyl)-6-(H1-1,2,4-triazole-1-yl) pyrimidine-2,4-(H1, H3) dione], the melting point lay in the range of 125 to 128 °C. Moreover, the IC50 in data set [4] (Homo sapiens, MCF7, 72 h) came out at 43.1 ± 2.07 µM. This molecule also showed an IC50 in data set [5] (Homo sapiens, HepG2, 72 h) of 65.4 ± 2.15 µM. The IC50 in data set [6] (setting [8]) is > 200 µM.

With `Cc1ccc(Cn2c(-n3cncn3)cc(=O)n(C)c2=O)cc1` [Compound 4j, 3-methyl-1-(4-methylbenzyl)-6-(H1-1,2,4-triazole-1-yl) pyrimidine-2,4-(H1, H3) dione], the melting point lay in the range of 116 to 118 °C. Moreover, the midpoint of inhibition in data set [4] (Homo sapiens, MCF7, 72 h), the IC50, lay at 16.2 ± 1.02 µM. Further, in data set [5] (Homo sapiens, HepG2, 72 h), the IC50 was 7.56 ± 5.28 µM. Moreover, the IC50 in data set [6] (setting [8]) was 57.3 ± 2.08 µM.
